Patent publication US6376753B1, “PURIFIED CYTOCHROME P450 POLYPEPTIDE CYP76B1 FROM HELIANTHUS TUBEROSUS AND ITS APPLICATIONS AS BIOCATALYST IN PARTICULAR FOR THE DEGRADATION OF ENVIRONMENTAL POLLUTANTS AND FOR ALTERING THE RESISTANCE OF PLANTS SENSITIVE TO PHENYLUREA FAMILY OF HERBICIDES” (priority 1997, dated 2002)
Where two headings read alike, the source gives them in different places. Values belong to the compound of their own block, whether it stands above or below them.

What was measured:
CYP76B1 [1] = target: T1, CYP76B1 (Helianthus tuberosus, UniProt O23976); assay: biochemical; conditions: for ΔAmax × 10^−3: at saturating ligand concentration
T1 sequence (O23976 1-490): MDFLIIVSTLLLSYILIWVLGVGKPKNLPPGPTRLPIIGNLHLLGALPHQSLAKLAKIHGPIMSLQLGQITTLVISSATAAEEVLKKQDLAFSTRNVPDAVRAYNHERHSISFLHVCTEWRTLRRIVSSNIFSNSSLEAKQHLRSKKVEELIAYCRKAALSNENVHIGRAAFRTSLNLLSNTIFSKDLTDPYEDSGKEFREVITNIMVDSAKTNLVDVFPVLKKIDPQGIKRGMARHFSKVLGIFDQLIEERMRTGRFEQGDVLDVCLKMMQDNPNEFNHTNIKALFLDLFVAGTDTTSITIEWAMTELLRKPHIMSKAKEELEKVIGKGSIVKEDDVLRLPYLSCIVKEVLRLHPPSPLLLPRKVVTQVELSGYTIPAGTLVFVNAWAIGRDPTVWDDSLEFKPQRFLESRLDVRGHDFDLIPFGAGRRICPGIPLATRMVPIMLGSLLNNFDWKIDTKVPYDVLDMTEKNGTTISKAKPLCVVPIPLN
Protocol: (§1) Spectrophotometric measurements of P450 content and substrate binding were performed as in (Gabriac et al., 1991) and SDS-PAGE was performed as in Gabriac et al. (34). Gels were stained with Coomassie Blue R-250. Alkoxycoumarins and alkoxyresorufins O-dealkylation was measured by fluorometry (Werck-Reichhart et al., 1990). The data are means ± S.D. of triplicates.
The binding of substrates into the catalytic site of a P450 usually induces a shift of its maximum of absorbance, redox potential and iron spin state (Raag and Poulos, 1989) resulting from the displacement of the water sixth ligand of the heme iron. It is easily detected by differential spectrophotometry as a so-called type I spectrum with a peak at 390 nm and a trough at 420 nm (Jefcoate, 1978). The variation of the differential absorbance ΔA390-420 versus substrate concentration allows the calculation of an apparent dissociation constant (Ks). A high ΔAmax induced by the ligand is usually an indication of correct positioning for catalysis.
CYP76B1 was 60 nM in the assays. Difference spectra were recorded after the addition of increasing concentrations of ligands to the sample cuvette. An equal volume of the herbicide solvent (DMSO) was added to the reference. Ks and ΔAmax at saturating ligand concentration were calculated from the double-reciprocal plots of ΔA(390-420 nm) versus substrate concentrations.

CYP76B1 [2] = target: T1, CYP76B1; assay: CYP76B1-dependent metabolism (O-/N-dealkylation) in microsomes of transformed yeast; conditions: for conversion / dealkylation by CYP76B1: transformed yeast microsomes, NADPH; for Activity: + NADPH; for turnover of the dealkylation: for phenylureas first dealkylation; for metabolite detection for endogenous molecules: transformed WAT11 yeast microsomes
Protocol: BamHI and EcoRI sites were introduced by PCR just upstream of the ATG and downstream of the stop codon of the CYP76B1 coding sequence, using the primers 5′-[…] (sense) 5′-[…] (reverse) (SEQ ID NO 3 and SEQ ID NO 4 respectively). The PCR mixture was preheated for 2 min at 92° C. before addition of 1 unit of Pfu DNA polymerase (Stratagene). After 3 min additional heating at 92° C., 30 cycles of amplification were carried out as follows 1 min denaturation at 92° C., 1 min annealing at 52° C., 2 min extension at 72° C. The reaction was completed by 10 min extension at 72° C. After BamHI/EcoRI digestion, the 1470 bp coding sequence was inserted into the vector pYeDP60 (32). Transformation of Saccharomyces cerevisiae W(R), WAT11 and WAT21, and yeast growth were conducted according to Pompon et al. (32). Yeast microsomes were prepared as described in Pierrel et al. (33) with addition of 1% SAB, 2 mM β-mercaptoethanol, 10 mM sodium disulfite and 1 mM PMSF to the extraction buffer. When indicated, 0.5 mM δ-aminolevulinic acid methyl ester (Sigma) was added to the induction medium, or cells were stored at 4° C. for 24 h before preparation of the microsomes.
as §1
The conversion of other molecules was assayed by TLC or HPLC analysis of polar metabolites formed from radiolabeled compounds (Cabello-Hurtado et al., 1998a, b). NADPH-cytochrome c reductase was assayed according to (Benveniste et al., 1986). Kinetic data were fitted using the nonlinear regression program […] (Duggleby, 1984).
10 μL of non-immune serum or of serum raised against purified ECOD fraction were preincubated 2 min at room temperature with 10 μL of microsomes before addition of the reaction mix. n.d.: not detectable.
Conversion was estimated from the sum of the two polar metabolites detected after TLC analysis. Data are means + S.D. of two to four determinations. n.d.: not detected.
CYP76B1 concentrations in the MCOD, ECOD, MROD and EROD fluorometric assays were 1.5 nM or 2.1 nM, depending on the coexpressed ATR1 or yeast reductases. In the CTUDM assays, CYP76B1 concentrations were 1.7 nM (ATR1) and 8 nM (yeast), respectively. It was 12 nM for the determination of the catalytic parameters of monodemethyl-CTUDM, and 1.7 nM (ATR1) or 20 nM (yeast) in the IPUDM assays. Products were quantified by direct TLC analysis of 100 μL of the acidified incubation medium after 6 min incubation at 30° C. for the CTUDM and IPUDM assays, and after 9 min incubation for the monodemethyl-CTUDM.

[3] = test system: 7-methoxyresorufin O-dealkylase activity; assay: Induction of 7-methoxyresorufin O-demethylase activity in tuber slices; assay type: cell-based, Helianthus tuberosus; conditions: 48 hours of treatment
Protocol: Slices of dormant tuber of Helianthus tuberosus were placed under survival conditions in oxygenated distilled water and stirred with a current of compressed air in the presence of various metals or organic compounds (effectors).
A control was performed with DMSO alone.

[4] = coexpressed reductase ATR1 (WAT11)
[5] = coexpressed yeast reductase (W(R))
[6] = read-out: KS (apparent dissociation constant), CYP76B1 60 nM, ΔA(390-420 nm) double-reciprocal plots

Compound: CON(C)C(=O)Nc1ccc(Br)c(Cl)c1 [Chlorbromuron]
Kd (CYP76B1 [1]): 5.3 µM
ΔAmax × 10^−3 (CYP76B1 [1]; CYP76B1 60 nM): 6.7 × 10^−3
conversion / dealkylation by CYP76B1 (CYP76B1 [2]): dealkylates

Compound: CNC(=O)Nc1ccc(C)c(Cl)c1 [monodemethyl-chlortoluron]
Kcat (CYP76B1 [2]; [4]): 0.767 s⁻¹
Km (CYP76B1 [2]; [4]): 81 µM
conversion / dealkylation by CYP76B1 (CYP76B1 [2]): actively dealkylated

Compound: Cl[C@H]1[C@H](Cl)[C@@H](Cl)[C@@H](Cl)[C@H](Cl)[C@H]1Cl [lindane]
induction of 7-methoxyresorufin O-dealkylase activity [3]: very strongly induced

Compound: CC(C)c1ccc(NC(=O)N(C)C)cc1 [Isoproturon, N-(4-isopropylphenyl)-N′,N′-dimethylurea]
Kd (CYP76B1 [1]): 55 µM
ΔAmax × 10^−3 (CYP76B1 [1]; CYP76B1 60 nM): 8.2 × 10^−3
Activity (CYP76B1 [2]; W(R) strain): 128 pkat mg-1 protein
turnover of the dealkylation (CYP76B1 [2]; W(R) strain): 40 min⁻¹
Activity (CYP76B1 [2]; WAT11 strain): 475 pkat mg-1 protein
turnover of the dealkylation (CYP76B1 [2]; WAT11 strain): 147 min⁻¹
Kcat (CYP76B1 [2]; [4]): 2.45 s⁻¹
Kcat (CYP76B1 [2]; [5]): 0.667 s⁻¹

Compound: CON(C)C(=O)Nc1ccc(Cl)cc1 [Monolinuron]
Kd (CYP76B1 [1]): 4.8 µM
conversion / dealkylation by CYP76B1 (CYP76B1 [2]): dealkylates

Compound: CCCCCCCCCCCCCCCC(=O)O [palmitic, palmitic acid]
metabolite detection for endogenous molecules (CYP76B1 [2]): No metabolite

Compound: O=C(O)/C=C/c1ccccc1 [cinnamate, trans-Cinnamic acid]
metabolite detection for endogenous molecules (CYP76B1 [2]): No metabolite

Compound: COc1ccc2ccc(=O)oc2c1 [7-methoxycoumarin, 7-Methoxycoumarin]
Activity (CYP76B1 [2]; W(R) strain): 10.9 pkat mg-1 protein
turnover of the dealkylation (CYP76B1 [2]; W(R) strain): 13 min⁻¹
Activity (CYP76B1 [2]; WAT11 strain): 16.4 pkat mg-1 protein
turnover of the dealkylation (CYP76B1 [2]; WAT11 strain): 31 min⁻¹

Compound: CC1=CC(=O)CC(C)(C)C1(O)/C=C/C(C)=C\C(=O)O (stereo not shown) [abcisic acid]
metabolite detection for endogenous molecules (CYP76B1 [2]): No metabolite

Compound: CCCCCCCC/C=C\CCCCCCCC(=O)O [oleic, oleic acid]
metabolite detection for endogenous molecules (CYP76B1 [2]): No metabolite

Compound: mercury
induction of 7-methoxyresorufin O-dealkylase activity [3]: very strongly induced

Compound: O=C1OC(=O)c2cccc3cccc1c23 [naphthalic anhydride, 1,8-Naphthalic anhydride]
induction of 7-methoxyresorufin O-dealkylase activity [3]: very strongly induced

Compound: O=C(O)c1ccccc1 [benzoate, Benzoic acid]
metabolite detection for endogenous molecules (CYP76B1 [2]): No metabolite

Compound: Cc1ccc2cc3c(ccc4ccccc43)c3c2c1CC3 [3-methylcholanthrene]
induction of 7-methoxyresorufin O-dealkylase activity [3]: very strongly induced

Compound: COc1ccc2nc3ccc(=O)cc-3oc2c1 [7-methoxyresorufin]
Activity (CYP76B1 [2]; W(R) strain): 12.6 pkat mg-1 protein
turnover of the dealkylation (CYP76B1 [2]; W(R) strain): 15 min⁻¹
Activity (CYP76B1 [2]; WAT11 strain): 18.6 pkat mg-1 protein
turnover of the dealkylation (CYP76B1 [2]; WAT11 strain): 41 min⁻¹
Kcat (CYP76B1 [2]; [4]): 0.683 s⁻¹
Km (CYP76B1 [2]; [4]): 0.17 µM
Kcat (CYP76B1 [2]; coexpressed reductase ATR2): 0.717 s⁻¹
Km (CYP76B1 [2]; coexpressed reductase ATR2): 0.185 µM
Kcat (CYP76B1 [2]; [5]): 0.25 s⁻¹
Km (CYP76B1 [2]; [5]): 0.23 µM

Compound: CCCCCCCCCC(=O)O [capric, capric acid]
metabolite detection for endogenous molecules (CYP76B1 [2]): No metabolite

Compound: CON(C)C(=O)Nc1ccc(Br)cc1 [Metobromuron]
Kd (CYP76B1 [1]; [6]): 6.2 µM

Compound: CCCCC(CC)COC(=O)c1ccccc1C(=O)OCC(CC)CCCC (stereo not shown) [diethylhexylphthalate]
induction of 7-methoxyresorufin O-dealkylase activity [3]: very strongly induced

Compound: CCOc1ccc2nc3ccc(=O)cc-3oc2c1 [7-ethoxyresorufin]
Activity (CYP76B1 [2]; W(R) strain): 5.1 pkat mg-1 protein
turnover of the dealkylation (CYP76B1 [2]; W(R) strain): 6 min⁻¹
Activity (CYP76B1 [2]; WAT11 strain): 11.6 pkat mg-1 protein
turnover of the dealkylation (CYP76B1 [2]; WAT11 strain): 22 min⁻¹
Kcat (CYP76B1 [2]; [4]): 0.467 s⁻¹
Km (CYP76B1 [2]; [4]): 0.17 µM

Compound: O=C1C[C@@H](c2ccc(O)cc2)Oc2cc(O)cc(O)c21 [naringenin]
metabolite detection for endogenous molecules (CYP76B1 [2]): No metabolite

Compound: CCCCCCCCCCCCCC(=O)O [myristic, myristic acid]
metabolite detection for endogenous molecules (CYP76B1 [2]): No metabolite

Compound: CCCCC/C=C\C/C=C\CCCCCCCC(=O)O [linoleic, linoleic acid]
metabolite detection for endogenous molecules (CYP76B1 [2]): No metabolite

Compound: CC/C=C\C/C=C\C/C=C\CCCCCCCC(=O)O [linolenic, linolenic acid]
metabolite detection for endogenous molecules (CYP76B1 [2]): No metabolite

Compound: C=C(CC[C@@H](C)[C@H]1CC[C@@]2(C)C3=C(CC[C@]12C)[C@@]1(C)CC[C@H](O)[C@@H](C)[C@@H]1CC3)C(C)C [obtusifoliol]
metabolite detection for endogenous molecules (CYP76B1 [2]): No metabolite

Compound: CCCCCCCCCCCC(=O)O [lauric, lauric acid]
metabolite detection for endogenous molecules (CYP76B1 [2]): No metabolite

Compound: c1ccc2c(c1)cc1ccc3cccc4ccc2c1c34 [benzo(a)pyrene]
induction of 7-methoxyresorufin O-dealkylase activity [3]: very strongly induced

Compound: COc1cc2ccc(=O)oc2cc1O [scopoletin]
metabolite detection for endogenous molecules (CYP76B1 [2]): No metabolite

Compound: COc1cc2oc(=O)ccc2cc1O [isoscopoletin]
metabolite detection for endogenous molecules (CYP76B1 [2]): No metabolite

induction of 7-methoxyresorufin O-dealkylase activity [3]: very strongly induced
Compound: COc1c2occc2cc2ccc(=O)oc12 [8-methoxypsoralen]

Compound: COc1cc(/C=C/C(=O)O)ccc1O [ferulate, ferulic acid]
metabolite detection for endogenous molecules (CYP76B1 [2]): No metabolite

Compound: Metoxuron
ΔAmax × 10^−3 (CYP76B1 [1]; CYP76B1 60 nM): 6.1 × 10^−3
Kd (CYP76B1 [1]; [6]): 117 µM
